From US8278480B2, “Salts, aqueous liquid compositions containing salts of S-(+)-abscisic acid and methods of their preparation” (Valent BioSciences Corporation, priority 2008, dated 2012)
Several values for one entry are separate records, joined by “and”; a condition that tells them apart may be missing. Identical values can stand only once.

Experiments:
Assay type in all cases: in vivo, Tomato (variety: Rutgers)
[1] = system: tomato leaf transpiration; assay: Tomato leaf transpiration inhibition after foliar spray (LI-1600 porometer); conditions: for Transpiration rate (% of control), 1 day after treatment: day 1; for Transpiration rate (% of control), 2 days after treatment: day 2; for Transpiration rate (% of control), 3 days after treatment: day 3; for Transpiration rate (% of control), 4 days after treatment: day 4; for Transpiration rate (% of control), 7 days after treatment: day 7; for ABA dose to achieve 50% inhibition of transpiration: from linear regression of 3-day average transpiration rate on log dose
Experimental: (§1) Preparation of plant specimens for use in the treatment studies of the EXAMPLES that follow was carried out as follows. Tomato (variety: Rutgers) seeds were sown in an 18-cell flat filled with Promix PGX (available from Premier Horticulture Inc., Quakertown Pa.) and grown for 3 weeks to allow for germination and initial growth. Plants were then transplanted into pots (18 cm in diameter and 18 cm in height), filled with Promix BX (available from Premier Horticulture Inc., Quakertown Pa.), and grown for one or two more weeks before treatment, depending on temperature and available light. Plants received daily irrigation and weekly fertilizer (1 g/L all purpose fertilizer 20-20-20, available from The Scotts Company, Marysville, Ohio).
(§2) All treatment solutions were made up with distilled water. The (S)-(+)-abscisic acid (95% active ingredient) is available from Lomon BioTechnology Co., Ltd. (Shichuan, China). The prior art aqueous solution composition of the ammonium salt of (S)-(+)-abscisic acid as prepared in Example 11 above was used as a positive treatment control for most of the studies.
(§3) All experiments were conducted using a randomized complete block experimental design. Solutions of (S)-(+)-abscisic acid and blank treatments (plain water) were applied by spray to the aerial parts of the tomato plants at the rate of 24 mL per 6 plants. Plants were then placed in a transparent chamber with humidity controlled within the range of 40 to 60% relative humidity. Leaf transpiration rates were measured at 1, 2, 3, 4 and 7 days after treatment. Measurements were conducted using a LI-1600 Steady State Porometer (LI-Cor, Lincoln, Nebr.). Each day the transpiration rate of the plants of each treatment group was normalized to a percentage of the transpiration rate of untreated plants (plants sprayed with water only) in order to control for day-to-day variability in plant status caused by changes of environmental conditions such as light intensity and temperature. Data for each plant was also averaged over a 3-day period to balance the short term and long term effect of (S)-(+)-abscisic acid on tomato leaf transpiration as well as to reduce experimental variability.
The regression equation of each (S)-(+)-abscisic acid salt as well as abscisic acid concentrations for 50% inhibition of transpiration were calculated. The relative potency of two ABA salts is the reciprocal of the ratio of (S)-(+)-abscisic acid concentration required for 50% transpiration inhibition for each composition.

tomato plant height = assay: Tomato plant height 7 days after treatment (growth suppression); conditions: 250 ppm (1 mg) (S)-(+)-abscisic acid, foliar spray; additives as in label
Experimental: as §1, §2
as §3, with “variability. It is important to note that no phytotoxicity was observed on any of the plants treated with the compositions of the present invention.” for “variability.”
In this experiment, the fresh weights of the aerial parts of the tomato plants and their heights were also measured at the end of the experiment, 7 days after treatments were applied, in order to assess the relative growth suppressing activity of the compositions.

[2] = system: tomato shoot fresh weight; assay: Tomato shoot fresh weight 7 days after treatment (growth suppression); conditions: foliar spray
Experimental: as §1, §2, §3
In this experiment, the fresh weights of the aerial parts of the tomato plants were also measured at the end of the experiment, 7 days after treatments were applied, in order to assess the relative growth suppressing activity of the compositions.

[3] = 332 ppm KI, no (S)-(+)-abscisic acid
[4] = (S)-(+)-abscisic acid dose 0.3 mg, foliar spray
[5] = (S)-(+)-abscisic acid dose 1 mg, foliar spray
[6] = (S)-(+)-abscisic acid dose 3 mg, foliar spray
[7] = (S)-(+)-abscisic acid dose 10 mg, foliar spray
[8] = foliar spray, 250 ppm (S)-(+)-abscisic acid (1 mg), additives as in label
[9] = 462 ppm ChI, no (S)-(+)-abscisic acid
[10] = reciprocal of ratio of doses for 50% transpiration inhibition

Structure (SMILES) | Transpiration rate (% of control), Average of 3 days after treatment [1, 4] | Transpiration rate (% of control), Average of 3 days after treatment [1, 5] | Transpiration rate (% of control), Average of 3 days after treatment [1, 6] | Transpiration rate (% of control), Average of 3 days after treatment [1, 7] | Transpiration rate (% of control), 7-Day Average [1, 8] | Transpiration rate (% of control), 1 day after treatment [1, 8] | Transpiration rate (% of control), 2 days after treatment [1, 8] | Transpiration rate (% of control), 3 days after treatment [1, 8] | Transpiration rate (% of control), 4 days after treatment [1, 8] | Transpiration rate (% of control), 7 days after treatment [1, 8] | ABA dose to achieve 50% inhibition of transpiration [1] [mg] | further results
[I-].[K+] [KI, potassium iodide, reference compound] |  |  |  |  |  |  |  |  |  |  |  | Transpiration rate (% of control), 4 Day Average ([1]; 332 ppm KI, no (S)-(+)-abscisic acid, 4-day average): 100.7 % of control; Transpiration rate (% of control), 1 day after treatment [1, 3]: 100.2 % of control; Transpiration rate (% of control), 2 days after treatment [1, 3]: 100.5 % of control; Transpiration rate (% of control), 3 days after treatment [1, 3]: 99.6 % of control; Transpiration rate (% of control), 4 days after treatment [1, 3]: 102.6 % of control
CC1=CC(=O)CC(C)(C)[C@@]1(O)/C=C/C(C)=C\C(=O)O.CN(C)C(=N)N(C)C [Example 6, Tetramethylguanidinium Salt of (S)-(+)-Abscisic Acid] | 71 % of control | 61 % of control | 42 % of control | 31 % of control | 70.8 % of control and 76.2 % of control and 78.7 % of control | 51.0 % of control and 51.9 % of control and 47.8 % of control | 61.3 % of control and 64.3 % of control and 69.0 % of control | 71.2 % of control and 75.6 % of control and 84.5 % of control | 79.9 % of control and 89.9 % of control and 93.2 % of control | 90.3 % of control and 99.1 % of control and 99.0 % of control | 1.93 | Plant height (cm) 7 days after treatment (tomato plant height): 30.1 cm
C[N+](C)(C)CCO.[I-] [ChI, choline iodide, reference compound] |  |  |  |  |  |  |  |  |  |  |  | Transpiration rate (% of control), 7-Day Average [1, 9]: 100.6 % of control; Transpiration rate (% of control), 1 day after treatment [1, 9]: 96.4 % of control; Transpiration rate (% of control), 2 days after treatment [1, 9]: 104.2 % of control; Transpiration rate (% of control), 3 days after treatment [1, 9]: 104.5 % of control; Transpiration rate (% of control), 4 days after treatment [1, 9]: 98.9 % of control; Transpiration rate (% of control), 7 days after treatment [1, 9]: 98.9 % of control
CC1=CC(=O)CC(C)(C)[C@@]1(O)/C=C/C(C)=C\C(=O)[O-].[K+] [Example 12, Potassium Salt of (S)-(+)-Abscisic Acid, reference compound] | 76 % of control | 66 % of control | 55 % of control | 44 % of control | 77.0 % of control | 55.0 % of control | 64.9 % of control | 76.9 % of control | 90.9 % of control | 97.3 % of control | 5.28 | Relative potency compared to the ammonium salt composition of Comparative Example 11 [1, 10]: 0.98 times
CC1=CC(=O)CC(C)(C)[C@@]1(O)/C=C/C(C)=C\C(=O)O.CN(C)C [Example 13, Trimethylamine Salt of (S)-(+)-Abscisic Acid, reference compound] | 84 % of control | 74 % of control | 65 % of control | 54 % of control | 81.2 % of control | 65.5 % of control | 73.6 % of control | 81.7 % of control | 88.2 % of control | 97.0 % of control | 16.59 | 
CC1=CC(=O)CC(C)(C)[C@@]1(O)/C=C/C(C)=C\C(=O)O.CCCCN(CCCC)CCCC [Example 14, Tributylamine Salt of (S)-(+)-Abscisic Acid, reference compound] | 82 % of control | 70 % of control | 53 % of control | 40 % of control | 79.5 % of control | 59.7 % of control | 71.3 % of control | 78.8 % of control | 87.4 % of control | 100.3 % of control | 4.34 | Fresh weight (g) 7 days after treatment ([2]; 75 ppm (0.3 mg) (S)-(+)-abscisic acid): 15.7 g; Fresh weight (g) 7 days after treatment ([2]; 250 ppm (1 mg) (S)-(+)-abscisic acid, additives as in label): 15.3 g; Fresh weight (g) 7 days after treatment ([2]; 750 ppm (3 mg) (S)-(+)-abscisic acid): 15.0 g; Fresh weight (g) 7 days after treatment ([2]; 2500 ppm (10 mg) (S)-(+)-abscisic acid): 13.9 g
CC1=CC(=O)CC(C)(C)[C@@]1(O)/C=C/C(C)=C\C(=O)[O-].C[N+](C)(C)C [Example 3, Tetramethylammonium Salt of (S)-(+)-Abscisic Acid] | 79 % of control | 65 % of control | 52 % of control | 38 % of control | 73.7 % of control | 59.1 % of control | 63.6 % of control | 71.9 % of control | 78.6 % of control | 95.4 % of control | 3.59 | Relative potency compared to the trimethylamine salt composition of Comparative Example 13 [1, 10]: 4.6 times
